Where only a bound is given, the exact number is not on record here.

T1 sequence (Q9UGL1 whole entry): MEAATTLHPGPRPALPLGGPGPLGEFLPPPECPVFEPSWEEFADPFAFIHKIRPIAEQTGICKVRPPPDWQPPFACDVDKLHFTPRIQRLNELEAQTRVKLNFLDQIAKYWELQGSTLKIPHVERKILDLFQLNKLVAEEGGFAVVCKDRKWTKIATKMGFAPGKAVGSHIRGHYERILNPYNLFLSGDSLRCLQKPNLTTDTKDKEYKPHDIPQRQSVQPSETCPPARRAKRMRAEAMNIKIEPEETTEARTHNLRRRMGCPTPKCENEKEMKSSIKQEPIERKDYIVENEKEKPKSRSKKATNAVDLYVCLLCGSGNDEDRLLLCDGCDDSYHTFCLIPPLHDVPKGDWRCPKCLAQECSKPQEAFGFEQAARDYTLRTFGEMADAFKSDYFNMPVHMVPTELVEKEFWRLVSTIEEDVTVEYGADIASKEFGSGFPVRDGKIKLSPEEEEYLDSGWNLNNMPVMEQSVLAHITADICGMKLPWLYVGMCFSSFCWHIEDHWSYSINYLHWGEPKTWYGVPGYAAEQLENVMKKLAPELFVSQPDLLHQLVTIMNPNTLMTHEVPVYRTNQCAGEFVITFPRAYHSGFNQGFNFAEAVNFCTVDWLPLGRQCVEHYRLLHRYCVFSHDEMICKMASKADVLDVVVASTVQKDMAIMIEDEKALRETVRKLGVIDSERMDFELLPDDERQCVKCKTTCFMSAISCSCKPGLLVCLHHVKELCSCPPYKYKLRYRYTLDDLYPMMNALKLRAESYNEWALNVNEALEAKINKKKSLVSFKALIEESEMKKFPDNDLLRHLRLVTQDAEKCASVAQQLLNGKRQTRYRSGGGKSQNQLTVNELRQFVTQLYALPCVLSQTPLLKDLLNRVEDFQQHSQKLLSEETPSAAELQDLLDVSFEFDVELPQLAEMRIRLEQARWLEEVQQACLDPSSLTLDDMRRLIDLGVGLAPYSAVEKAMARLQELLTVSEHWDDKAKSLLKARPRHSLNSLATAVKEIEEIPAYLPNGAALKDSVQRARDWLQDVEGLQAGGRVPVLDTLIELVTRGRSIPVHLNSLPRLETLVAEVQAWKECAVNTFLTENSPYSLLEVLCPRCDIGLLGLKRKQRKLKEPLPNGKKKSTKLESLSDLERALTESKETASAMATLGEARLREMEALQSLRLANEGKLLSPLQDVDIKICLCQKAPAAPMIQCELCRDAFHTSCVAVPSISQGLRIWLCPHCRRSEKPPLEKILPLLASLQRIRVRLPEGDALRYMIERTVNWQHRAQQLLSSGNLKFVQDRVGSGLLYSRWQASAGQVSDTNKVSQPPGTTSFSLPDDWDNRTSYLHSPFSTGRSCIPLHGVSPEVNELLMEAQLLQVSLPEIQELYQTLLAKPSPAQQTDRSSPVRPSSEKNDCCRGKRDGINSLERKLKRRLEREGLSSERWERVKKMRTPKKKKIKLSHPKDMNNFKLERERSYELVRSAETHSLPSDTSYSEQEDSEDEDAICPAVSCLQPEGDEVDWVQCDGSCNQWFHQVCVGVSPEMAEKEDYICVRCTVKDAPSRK

One test addresses T1, Full-length KDM5B enzyme (Homo sapiens, UniProt Q9UGL1).
T1 construct: recombinant protein from baculovirus-transfected Sf21 cells: full-length KDM5B; MW=176.825 kDa; host or cells: baculovirus-transfected Sf21 insect cells
In words: KDM5B TR-FRET Enzyme Activity Assay (LANCE).
Settings: not given
It is filed as biochemical. Here is the method:
KDM5B TR-FRET Enzyme Activity Assay
KDM5B enzymatic activity was determined with the LANCE (Lanthanide Chelate Excite) TR-FRET (Time-resolved fluorescence resonance energy transfer) assay. […] Following a 30 minutes compound and enzyme incubation in a humidified chamber, each reaction was initiated by the addition of 1 μL 1× assay buffer containing […] biotinylated H3K4Me3 peptide, and 500 nM α-ketoglutarate. The final reaction in each well of 5 μL consists of 5 nM KDM5B, 500 nM biotinylated-peptide, and 500 nM α-ketoglutarate. De-methylation reactions were allowed to proceed for 60 minutes. Reactions were immediately quenched by the addition of 5 μL of 2× Lance Detection Buffer (PerkinElmer) with 0.5 mM EDTA and 2 nM of Eu-anti-H3K4Mel-2 antibody, and 30 nM of Streptavidin-conjugated Dylight 650 detection reagents. After 60 minutes incubation with detection reagents, reaction plates were read on a PerkinElmer EnVision plate reader using standard TR-FRET protocol. Briefly, excitation of donor molecules (Eu-chelate-anti-H3K4Me1-2-antibody) with a laser light source at 337 nm produces energy that can be transferred to Dylight-650 acceptor molecules if this donor:acceptor pair is within close proximity.
Fluorescence intensity at both 665 nm (acceptor) and 615 nm (donor) are measured and a TR-FRET ratio calculated for each well (acceptor intensity/donor intensity). IC50 values were determined by 4 parameter robust fit of TR-FRET ratio values vs. (Log 10) compound concentrations.
Molecule `Cc1nc2[nH]c(C)c(C3CCCC3)c(=O)n2n1` [Example 7-45, 6-cyclopentyl-2,5-dimethyl[1,2,4]triazolo[1,5-a]pyrimidin-7(4H)-one] had an IC50 greater than 100 µM.
Turning to `Cc1nc2[nH]c(C3CC3)cc(=O)n2n1` [Example 7-46, 5-cyclopropyl-2-methyl[1,2,4]triazolo[1,5-a]pyrimidin-7(4H)-one], the half-maximal inhibitory concentration (IC50) is greater than 100 µM.
`CCCCc1cc(=O)n2nc(C)nc2[nH]1` [Example 7-49, 5-butyl-2-methyl[1,2,4]triazolo[1,5-a]pyrimidin-7(4H)-one] showed an IC50 greater than 100 µM.
For the molecule `Cc1nc2[nH]c(-c3ccc(Cl)cc3)cc(=O)n2n1` [Example 7-51, 5-(4-chlorophenyl)-2-methyl[1,2,4]triazolo[1,5-a]pyrimidin-7(4H)-one], the IC50 turned out to be 14.2 µM.
Regarding `Cc1nc2[nH]c(-c3ccccc3Cl)cc(=O)n2n1` [Example 7-52, 5-(2-chlorophenyl)-2-methyl[1,2,4]triazolo[1,5-a]pyrimidin-7(4H)-one], the concentration for half-maximal inhibition (IC50) was greater than 100 µM.
In turn, `Cc1nc2[nH]c(CC3CCCC3)cc(=O)n2n1` [Example 7-56, 5-(cyclopentylmethyl)-2-methyl[1,2,4]triazolo[1,5-a]pyrimidin-7(4H)-one] displayed an IC50 greater than 100 µM.
Still for that read-out and setting: under `Cc1nc2[nH]c(CC(C)(C)C)cc(=O)n2n1` [Example 7-57, 5-(2,2-dimethylpropyl)-2-methyl[1,2,4]triazolo[1,5-a]pyrimidin-7(4H)-one] stands greater than 100 µM; under `Cc1nc2[nH]c(C3CCOCC3)cc(=O)n2n1` [Example 7-58, 2-methyl-5-(tetrahydro-2H-pyran-4-yl)[1,2,4]triazolo[1,5-a]pyrimidin-7(4H)-one], greater than 100 µM.
Turning to `Cc1nc2[nH]c(C3CCCCC3)cc(=O)n2n1` [Example 7-59, 5-cyclohexyl-2-methyl[1,2,4]triazolo[1,5-a]pyrimidin-7(4H)-one], the IC50 is greater than 100 µM.
In the case of `Cc1nc2[nH]c(C3CCCC3)cc(=O)n2n1` [Example 7-61, 5-cyclopentyl-2-methyl[1,2,4]triazolo[1,5-a]pyrimidin-7(4H)-one], the half-maximal inhibitory concentration (IC50) was greater than 100 µM.
On the same count and under the same terms, the result for `Cc1nc2[nH]c(CC3CC3)cc(=O)n2n1` [Example 7-63, 5-(cyclopropylmethyl)-2-methyl[1,2,4]triazolo[1,5-a]pyrimidin-7(4H)-one] reads greater than 100 µM.
Take `Cc1nc2[nH]c(-c3ccccc3)cc(=O)n2n1` [Example 7-69, 2-methyl-5-phenyl-[1,2,4]triazolo[1,5-a]pyrimidin-7(4H)-one]: half-maximal inhibition (IC50) required 7.64 µM.

The test is the same for the next values; noted with them: 5 nM full-length KDM5B, biotinylated H3K4Me3 peptide, 500 nM α-ketoglutarate; ten point titration 100000 nM to 5.08 nM; read-out: IC50.
With `Cc1nc2[nH]c(-c3ccco3)cc(=O)n2n1` [Example 7-44, 5-furan-2-yl-2-methyl[1,2,4]triazolo[1,5-a]pyrimidin-7(4H)-one], the IC50 amounted to 33.8 µM.
Consider `CCc1[nH]c2nc(C)nn2c(=O)c1C` [Example 7-47, 5-ethyl-2,6-dimethyl[1,2,4]triazolo[1,5-a]pyrimidin-7(4H)-one], for which the IC50 worked out at 28.8 µM.
On to `Cc1nc2[nH]c(C(F)(F)F)c(C)c(=O)n2n1` [Example 7-48, 2,6-dimethyl-5-(trifluoromethyl)[1,2,4]triazolo[1,5-a]pyrimidin-7(4H)-one], for which the IC50 worked out at 29.6 µM.
The same measure, in the same setting: under `Cc1nc2[nH]c(C)c(F)c(=O)n2n1` [Example 7-50, 6-fluoro-2,5-dimethyl[1,2,4]triazolo[1,5-a]pyrimidin-7(4H)-one] stands 70.5 µM.
Consider `Cc1nc2[nH]c(-c3ccccc3F)cc(=O)n2n1` [Example 7-53, 5-(2-fluorophenyl)-2-methyl[1,2,4]triazolo[1,5-a]pyrimidin-7(4H)-one], for which the half-inhibitory concentration (IC50) turned out to be 37.5 µM.
Same read-out and setting: under `Cc1nc2[nH]c(-c3cccc(Cl)c3)cc(=O)n2n1` [Example 7-54, 5-(3-chlorophenyl)-2-methyl[1,2,4]triazolo[1,5-a]pyrimidin-7(4H)-one] stands 12.3 µM.
For the molecule `Cc1nc2[nH]c(Cc3ccccc3)cc(=O)n2n1` [Example 7-55, 5-benzyl-2-methyl[1,2,4]triazolo[1,5-a]pyrimidin-7(4H)-one], the IC50 was determined as 98.4 µM.
The same measure, in the same setting: under `CCc1c(C(F)(F)F)[nH]c2nc(C)nn2c1=O` [Example 7-60, 6-ethyl-2-methyl-5-(trifluoromethyl)[1,2,4]triazolo[1,5-a]pyrimidin-7(4H)-one] stands 6.38 µM.
For the molecule `Cc1nc2[nH]c(C3CCC3)cc(=O)n2n1` [Example 7-62, 5-cyclobutyl-2-methyl[1,2,4]triazolo[1,5-a]pyrimidin-7(4H)-one], the IC50 worked out at 63.2 µM.
On to `Cc1nc2[nH]c(C3CC3)c(C)c(=O)n2n1` [Example 7-64, 5-cyclopropyl-2,6-dimethyl[1,2,4]triazolo[1,5-a]pyrimidin-7(4H)-one], for which the IC50 was found to be 44.2 µM.
In the case of `Cc1nc2[nH]c(C(F)(F)F)c(F)c(=O)n2n1` [Example 7-65, 6-fluoro-2-methyl-5-(trifluoromethyl)[1,2,4]triazolo[1,5-a]pyrimidin-7(4H)-one], the half-inhibitory concentration (IC50) is 28.2 µM.
`Cc1nc2[nH]c(C3CCCC3)c(C)c(=O)n2n1` [Example 7-66, 5-cyclopentyl-2,6-dimethyl[1,2,4]triazolo[1,5-a]pyrimidin-7(4H)-one]: the IC50 was 27.8 µM.
In the case of `Cc1nc2[nH]c(C3CCCCC3)c(C)c(=O)n2n1` [Example 7-67, 5-cyclohexyl-2,6-dimethyl[1,2,4]triazolo[1,5-a]pyrimidin-7(4H)-one], the half-inhibitory concentration (IC50) came to 53.6 µM.
As to `Cc1nc2[nH]c(C3CCC3)c(C)c(=O)n2n1` [Example 7-68, 5-cyclobutyl-2,6-dimethyl[1,2,4]triazolo[1,5-a]pyrimidin-7(4H)-one], the half-maximal inhibitory concentration (IC50) is 22.8 µM.
